Values of other authors in patent US12565499B2, “Compounds and methods” (INTRA-CELLULAR THERAPIES, INC., priority 2012, dated 2026).

Test system: mice
Conditions: chronic administration; Berton et al., Science (2006) 311:864-868

CNCCC(Oc1ccc(C(F)(F)F)cc1)c1ccccc1 (stereo not shown) [fluoxetine]
reversal of isolation behavior in the social defeat/resident intruder model: reversed
